The source of these data is ChEMBL document CHEMBL3301546, “MMV Malaria Box yeast growth screening”.

Common to all, as to assay type: functional
Assay [1] concerns Saccharomyces cerevisiae. Briefly: MMV: Growth assays were conducted using the prototrophic S. cerevisiae strain JHY222. Each MMV compound (0.1 mM) was tested in minimal media containing ethanol and glycerol as carbon sources (Yeast Nitrogen Base, Ethanol, Glycerol; YNBEG). The growth rate in the presence of each MMV compound was calculated as follows: (i) the first 10 OD readings were averaged and subtracted from all OD readings of the corresponding curve to set the baseline of the growth curve to zero, and (ii) the area under the curve (AUC) was then calculated as the sum of all OD readings. […] A relative growth value was calculated as follows: AUC(DRUG) - AUC(DMSO)/AUC(DMSO); where AUC(DMSO) represents growth measured in a DMSO control well that was on the same microtiter plate of the drug-treated culture.

For assay [2], the system named is Saccharomyces cerevisiae. Kind of assay: (§1) MMV: Growth assays were conducted using the prototrophic S. cerevisiae strain JHY222. Each MMV compound (0.1 mM) was tested in rich media containing dextrose as a carbon source (Yeast Extract, Peptone, Dextrose; YPD). The growth rate in the presence of each MMV compound was calculated as follows: (i) the first 10 OD readings were averaged and subtracted from all OD readings of the corresponding curve to set the baseline of the growth curve to zero, and (ii) the area under the curve (AUC) was then calculated as the sum of all OD readings. […] A relative growth value was calculated as follows: AUC(DRUG) - AUC(DMSO)/AUC(DMSO); where AUC(DMSO) represents growth measured in a DMSO control well that was on the same microtiter plate of the drug-treated culture.

The subject of assay [3] is Saccharomyces cerevisiae. Described as §1, with “minimal” for “rich”, “Nitrogen Base,” for “Extract, Peptone,”, “YNBD).” for “YPD).”.

Molecules are shown by their SMILES.

Regarding `Cc1ccc(Nc2nc(NCCO)c3ccccc3n2)cc1C`, the “Relative Growth” value is on record as 0.0228 in the assay with Saccharomyces cerevisiae [1], -0.1142 in the assay with Saccharomyces cerevisiae [2] and 0.0139 in the assay with Saccharomyces cerevisiae [3].

On to `CC(C)(C)C(=O)Nc1ccc(C(=O)Nc2cccc(-c3nc4ccccc4[nH]3)c2)cc1`, for which the “Relative Growth” value is reported as -0.4785 with Saccharomyces cerevisiae [1], 0.0628 in the assay with Saccharomyces cerevisiae [2] and -0.1639 in the assay with Saccharomyces cerevisiae [3].

Consider `CC1CC(C)CN(C(=O)c2ccc(Cl)cc2Cl)C1` (stereo not given), for which the “Relative Growth” value is -0.0083 in the assay with Saccharomyces cerevisiae [1], 0.0159 in the assay with Saccharomyces cerevisiae [2] and -0.0098 in the assay on Saccharomyces cerevisiae [3].

In the case of `FC(F)(F)c1cccc(Nc2nc(-c3ccccc3)nc3ncccc23)c1`, the results for the “Relative Growth” value in the assay with Saccharomyces cerevisiae [1], in the assay with Saccharomyces cerevisiae [2] and with Saccharomyces cerevisiae [3] were -0.0611, 0.1402 and -0.0599, respectively.

On to `COc1cccc(NC(=O)Cn2c(C)c(C#N)c3ccccc32)c1`, for which the entries for the “Relative Growth” value in the assay with Saccharomyces cerevisiae [1], in the assay on Saccharomyces cerevisiae [2] and in the assay on Saccharomyces cerevisiae [3] were -1.0064, -0.9399 and -1.0078, respectively.

Turning to `O=C(NC1CCCC1)c1ccc(N2CCC(NCc3cccc(C(F)(F)F)c3)CC2)cc1`, the entries for the “Relative Growth” value with Saccharomyces cerevisiae [1], in the assay with Saccharomyces cerevisiae [2] and in the assay on Saccharomyces cerevisiae [3] were -0.7428, 0.09 and -0.054, respectively.

Turning to `CC1CN(C(=O)c2sc3ccccc3c2Cl)CC(C)O1` (stereo not given), the “Relative Growth” value in the assay on Saccharomyces cerevisiae [1] was -0.1107; in the assay on Saccharomyces cerevisiae [2], -0.0005; with Saccharomyces cerevisiae [3], 0.0985.

Take `Cn1c(=O)c2cc(C(=O)NCCCN3CCCCCC3)sc2c2ccccc21`: the “Relative Growth” value with Saccharomyces cerevisiae [1] is given as 0.0018; in the assay with Saccharomyces cerevisiae [2], -0.0314; with Saccharomyces cerevisiae [3], -0.1099.

Take `CC1=C(CC(=O)c2cccc([N+](=O)[O-])c2)C(=O)c2ccccc2C1=O`: the “Relative Growth” value in the assay with Saccharomyces cerevisiae [1] is recorded as -1.022; in the assay with Saccharomyces cerevisiae [2], -0.9318; with Saccharomyces cerevisiae [3] it was -1.0109.

In the case of `COc1ccc2sc(N(Cc3cccnc3)C(=O)c3ccc(C#N)cc3)nc2c1`, the “Relative Growth” value with Saccharomyces cerevisiae [1] was -0.5371; in the assay with Saccharomyces cerevisiae [2], -0.0469; with Saccharomyces cerevisiae [3], -0.1064.

For the compound `Oc1ccccc1CN1CCC2(CCCN(Cc3ccccc3F)C2)C1` (stereo not given), the figures for the “Relative Growth” value in the assay on Saccharomyces cerevisiae [1], with Saccharomyces cerevisiae [2] and in the assay on Saccharomyces cerevisiae [3] were -0.309, -0.0746 and -0.0494, respectively.

Regarding `Cc1cc(C)cc(Nc2cc(C)nc3nc(C(F)(F)F)nn23)c1`, the “Relative Growth” value is given as -0.0322 with Saccharomyces cerevisiae [1], -0.0343 in the assay with Saccharomyces cerevisiae [2] and 0.0866 in the assay with Saccharomyces cerevisiae [3].

For the compound `CCN(CC)CCNc1ncnc2c1[nH]c1ccc(Br)cc12`, the “Relative Growth” value with Saccharomyces cerevisiae [1] is recorded as 0.0355; in the assay with Saccharomyces cerevisiae [2], -0.0425; in the assay on Saccharomyces cerevisiae [3], 0.101.

In the case of `CCOC(=O)C1=C(C)N=c2sc(=Cc3ccccc3O)c(=O)n2C1c1ccc(OC)c2ccccc12` (stereo not given), the “Relative Growth” value is 0.0525 in the assay on Saccharomyces cerevisiae [1], -0.9923 in the assay with Saccharomyces cerevisiae [2] and 0.0217 in the assay on Saccharomyces cerevisiae [3].

With `CCOc1ccccc1CNC(=O)C1c2ccccc2C(=O)N(CC(C)C)C1c1cccs1` (stereo not given), the entries for the “Relative Growth” value in the assay with Saccharomyces cerevisiae [1], in the assay with Saccharomyces cerevisiae [2] and in the assay with Saccharomyces cerevisiae [3] were -0.1153, -0.0674 and 0.0472, respectively.

As for `CN(C)c1ccc(N2C(N)=NC(N)=NC2(C)C)cc1`, the results for the “Relative Growth” value in the assay on Saccharomyces cerevisiae [1], in the assay on Saccharomyces cerevisiae [2] and with Saccharomyces cerevisiae [3] were 0.007, -0.0542 and 0.0279, respectively.

Turning to `O=C(Cc1ccccc1)NC(c1ccc(Cl)cc1)c1c(O)ccc2ccccc12` (stereo not given), the “Relative Growth” value in the assay with Saccharomyces cerevisiae [1] is 0.0388; in the assay with Saccharomyces cerevisiae [2], 0.0198; in the assay with Saccharomyces cerevisiae [3], -0.1217.

Take `COc1cc(-c2nc(-c3ccc(Sc4ccccc4)cc3)c(-c3ccccc3)[nH]2)cc(OC)c1O`: the “Relative Growth” value in the assay on Saccharomyces cerevisiae [1] was -0.2127; in the assay on Saccharomyces cerevisiae [2], -0.0314; in the assay with Saccharomyces cerevisiae [3], -0.0129.

For `COc1ccc(-c2cn3c(C(=O)Nc4ccccc4Cl)c(-c4ccccc4)c4c3n2CCCC4)cc1`, the “Relative Growth” value was -0.235 in the assay with Saccharomyces cerevisiae [1], -0.0135 in the assay on Saccharomyces cerevisiae [2] and 0.0523 with Saccharomyces cerevisiae [3].

Consider `Cc1cc(Nc2ccc(C)c(Cl)c2)n2nc(C(F)(F)F)nc2n1`, for which the figures for the “Relative Growth” value in the assay with Saccharomyces cerevisiae [1], in the assay with Saccharomyces cerevisiae [2] and in the assay with Saccharomyces cerevisiae [3] were -0.6431, -0.0311 and 0.1169, respectively.

On to `COc1ccc(Nc2nc(NCc3ccccc3)c3ccccc3n2)cc1`, for which the “Relative Growth” value is -0.0366 in the assay on Saccharomyces cerevisiae [1], 0.0094 in the assay with Saccharomyces cerevisiae [2] and 0.0331 with Saccharomyces cerevisiae [3].

As to `CCCc1cc(O)c2c3c(c(=O)oc2c1)CN(C)CC3`, the “Relative Growth” value in the assay on Saccharomyces cerevisiae [1] was -0.0215; in the assay with Saccharomyces cerevisiae [2], -0.0062; with Saccharomyces cerevisiae [3], -0.0292.

As to `COc1ccc(CCN2CCC(CN(C)Cc3cnn(-c4ccccc4)c3)CC2)cc1`, the “Relative Growth” value in the assay on Saccharomyces cerevisiae [1] is reported as -0.844; with Saccharomyces cerevisiae [2], 0.0613; in the assay on Saccharomyces cerevisiae [3], -0.2117.

As for `CCCN(CCC)CCCNC(=O)c1cc2c(-c3ccc(OC)c(OC)c3)nn(C)c2s1`, the “Relative Growth” value with Saccharomyces cerevisiae [1] is given as -0.061; with Saccharomyces cerevisiae [2], -0.0057; with Saccharomyces cerevisiae [3] it was -0.0982.

Take `COc1ccc(C=C2SC(Nc3ccc(F)cc3)=NC2=O)c(OC)c1`: the results for the “Relative Growth” value with Saccharomyces cerevisiae [1], in the assay with Saccharomyces cerevisiae [2] and in the assay with Saccharomyces cerevisiae [3] were -0.8081, -0.0657 and -0.7691, respectively.

For `OC1=C2C(=Nc3ccccc3SC2c2ccc(Br)cc2)c2ccccc21` (stereo not given), the “Relative Growth” value is recorded as 0.1502 with Saccharomyces cerevisiae [1], -0.0041 in the assay with Saccharomyces cerevisiae [2] and 0.0198 in the assay on Saccharomyces cerevisiae [3].

As for `COc1ccccc1C(=O)ON=C(N)Cc1cccc2ccccc12`, the entries for the “Relative Growth” value in the assay with Saccharomyces cerevisiae [1], with Saccharomyces cerevisiae [2] and in the assay with Saccharomyces cerevisiae [3] were 0.0174, 0.0139 and 0.0083, respectively.

For the compound `OC1=C2C(=Nc3ccccc3SC2c2ccccc2)c2ccccc21` (stereo not given), the “Relative Growth” value with Saccharomyces cerevisiae [1] is given as -0.0669; in the assay with Saccharomyces cerevisiae [2], -0.0053; in the assay with Saccharomyces cerevisiae [3] it was -0.1585.

`Cl.Oc1ccccc1CNCC12CC3CC(CC(C3)C1)C2`: the “Relative Growth” value is recorded as 0.0858 in the assay with Saccharomyces cerevisiae [1], -0.0154 in the assay with Saccharomyces cerevisiae [2] and 0.0701 in the assay on Saccharomyces cerevisiae [3].

As to `Cc1ccc(N2C3c4ccccc4N(S(=O)(=O)c4ccc(C)cc4)C2c2ccccc2N3S(=O)(=O)c2ccc(C)cc2)cc1`, the “Relative Growth” value with Saccharomyces cerevisiae [1] is recorded as -0.3051; with Saccharomyces cerevisiae [2] it was -0.0583; with Saccharomyces cerevisiae [3] it was -0.0282.

`COc1ccc(C(O)(CCC(C)C)C(CN2CCOCC2)c2ccc(Cl)cc2)cc1.Cl` (stereo not given): the figures for the “Relative Growth” value in the assay on Saccharomyces cerevisiae [1], in the assay with Saccharomyces cerevisiae [2] and with Saccharomyces cerevisiae [3] were -0.1228, -0.0809 and -0.0398, respectively.

Regarding `Cc1ccc(C)c(Cn2c(N3CCC(C(=O)NCc4cccs4)CC3)nc3ccccc32)c1`, the “Relative Growth” value is given as -0.021 with Saccharomyces cerevisiae [1], -0.4893 in the assay with Saccharomyces cerevisiae [2] and -0.0285 in the assay on Saccharomyces cerevisiae [3].

With `Cc1cc(Nc2cccc(F)c2)nc(NCc2ccccc2)n1`, the entries for the “Relative Growth” value in the assay on Saccharomyces cerevisiae [1], with Saccharomyces cerevisiae [2] and in the assay on Saccharomyces cerevisiae [3] were -0.2557, -0.0448 and 0.0258, respectively.

In the case of `CCOc1ccc(Nc2ccnc3cc(Cl)ccc23)cc1`, the “Relative Growth” value is on record as 0.0427 in the assay on Saccharomyces cerevisiae [1], 0.0185 with Saccharomyces cerevisiae [2] and 0.0274 in the assay on Saccharomyces cerevisiae [3].

With `CCc1ccc(CNCC(O)c2ccccc2)cc1.Cl` (stereo not given), the figures for the “Relative Growth” value with Saccharomyces cerevisiae [1], in the assay on Saccharomyces cerevisiae [2] and in the assay with Saccharomyces cerevisiae [3] were -0.0955, -0.1772 and -0.0182, respectively.

In the case of `CC(C)CCNCC(O)Cn1c2ccccc2c2ccccc21.Cl` (stereo not given), the “Relative Growth” value in the assay with Saccharomyces cerevisiae [1] was -1.0262; in the assay on Saccharomyces cerevisiae [2], -0.9987; in the assay on Saccharomyces cerevisiae [3] it was -0.9941.

As for `O=C(O)C1Cc2c([nH]c3ccccc23)C(c2ccc(Cl)cc2Cl)N1` (stereo not given), the “Relative Growth” value in the assay with Saccharomyces cerevisiae [1] is listed as 0.1085; with Saccharomyces cerevisiae [2] it was -0.035; in the assay on Saccharomyces cerevisiae [3] it was -0.0148.

On to `COc1cc(C(=O)ON=C(N)Cc2cccc3ccccc23)cc(OC)c1OC`, for which the “Relative Growth” value in the assay with Saccharomyces cerevisiae [1] is given as 0.1784; in the assay on Saccharomyces cerevisiae [2], -0.2539; in the assay on Saccharomyces cerevisiae [3], 0.2835.

Consider `CCOc1cccc(C(=O)Nc2ccc(-c3nc4ccccc4[nH]3)cc2)c1`, for which the “Relative Growth” value with Saccharomyces cerevisiae [1] is recorded as 0.032; with Saccharomyces cerevisiae [2] it was -0.0469; in the assay on Saccharomyces cerevisiae [3], 0.0858.

In the case of `O=C(c1ccccc1F)N(Cc1ccc(Cl)cc1)c1ccccn1`, the “Relative Growth” value in the assay with Saccharomyces cerevisiae [1] is reported as -0.0049; in the assay on Saccharomyces cerevisiae [2], -0.0537; in the assay on Saccharomyces cerevisiae [3], 0.0025.

For `CN1CCN(c2ccc(Nc3c4ccccc4nc4ccccc34)cc2)CC1`, the “Relative Growth” value with Saccharomyces cerevisiae [1] is 0.1233; in the assay on Saccharomyces cerevisiae [2], 0.031; in the assay with Saccharomyces cerevisiae [3] it was 0.0237.

With `Cc1ccccc1OCCSc1nc2ccc(NC(=O)c3ccccc3)cc2s1`, the figures for the “Relative Growth” value in the assay with Saccharomyces cerevisiae [1], with Saccharomyces cerevisiae [2] and in the assay with Saccharomyces cerevisiae [3] were -0.0554, -0.3917 and -0.1178, respectively.

Consider `CCOc1ccc(-c2nc(NC(=O)c3cccc(S(C)(=O)=O)c3)sc2C)cc1`, for which the figures for the “Relative Growth” value in the assay with Saccharomyces cerevisiae [1], in the assay on Saccharomyces cerevisiae [2] and in the assay with Saccharomyces cerevisiae [3] were 0.1015, 0.0098 and 0.0499, respectively.

With `CCN1CCN(c2c(C(=O)c3ccccc3)cnc3cc(OC)c(OC)cc23)CC1`, the “Relative Growth” value with Saccharomyces cerevisiae [1] is reported as -0.2869; with Saccharomyces cerevisiae [2] it was -0.0459; with Saccharomyces cerevisiae [3], 0.0169.

For `FC(F)(F)c1ccc(Nc2nnnc3ccccc23)cc1`, the “Relative Growth” value in the assay on Saccharomyces cerevisiae [1] is 0.0852; with Saccharomyces cerevisiae [2], -0.97; in the assay on Saccharomyces cerevisiae [3], -0.0492.
